From patent US10052305B2, “Lipoic acid and derivatives thereof for the treatment of cystinuria” (Buck Institute for Research on Aging, priority 2015, dated 2018)

Tests used:
Format in all cases: in vivo
[1] = test system: Slc3a1−/− mice; experiment: Effect on cystine urinary stone growth tracked by μCT after switch to a lipoic acid diet; conditions: Slc3a1−/− mice on standard diet, switched on day 54 to diet with 0.5% (±)-α-lipoic acid; before vs after treatment
Excerpt: To evaluate the effect of lipoic acid on cystine urinary stone growth, stone development was tracked by micro-computed tomography (μCT) in Slc3a1^−/− mice fed a standard diet. On day 54 of the study, the mice were switched onto a diet supplemented with 0.5% (±)-α-lipoic acid.

[2] = Real time food and water intake in metabolic cages; conditions: Slc3a1−/− mice; 0.5% (±)-α-lipoic acid diet vs standard diet; 3 days after 3 days of acclimation
Method: Real time food and water intake was measured in Slc3a1^−/− mice treated with 0.5% (±)-α-lipoic acid supplemented diet by group housing in metabolic cages. Mice were acclimated to the metabolic cage environment for 3 days and then evaluated for food and water intake for the subsequent 3 days.

[3] = test system: Slc3a1−/− mice; experiment: Prevention of cystine stone formation in a genetic mouse model of cystinuria, evaluated by micro-computed tomography (μCT)
Excerpt: A genetic mouse model of cystinuria was used to study the formation of cystine urinary stones. Mice lacking the gene Slc3a1 (Slc3a1^−/−) were fed a diet supplemented with 0.5% (±)-α-lipoic acid and evaluated for the formation of cystine stones using micro-computed tomography (μCT). […] On average, mice treated with lipoic acid developed much smaller cystine stones (mm^3). This experiment was repeated again (Experiment 2) with similar results; none (0 out of 6) of the lipoic acid treated cystinuric mice developed stones while all control, non-treated mice (8 out of 8) had developed urinary stones had developed stones by day 27 of the study.

O=C(O)CCCCC1CCSS1 (racemic) [Lipoic acid, (±)-α-lipoic acid]
decrease of the rate of stone volume accumulation (mm^3/day) [1]: 90% | light cycle, dark cycle, or total food intake [2]: did not especially alter | light cycle, dark cycle, or total water intake [2]: did not especially alter | mice that developed stones ([3]; Experiment 2 (repeat), by day 27 of the study, non-treated mice 8 out of 8): 0 out of 6 | average cystine stone size vs non-treated mice ([3]; first experiment (FIG. 2), diet supplemented with 0.5% (±)-α-lipoic acid): much smaller | mice that developed cystine stones ([3]; first experiment (FIG. 2), diet supplemented with 0.5% (±)-α-lipoic acid, non-treated mice 7/7): 2 out of 8
